Reference: patent publication EP3925949A1, “AZIDO COMPOUNDS AND METHOD FOR MONITORING ACID CERAMIDASE ACTIVITY IN INTACT CELLS USING THEM” (Consejo Superior de Investigaciones Científicas (CSIC), priority 2020, dated 2021)

How the values were obtained:
[1] = target: T1, human recombinant neutral ceramidase (NC) (Homo sapiens, UniProt Q9NR71); assay: Hydrolysis of RBM5-177 by recombinant NC, UPLC-HRMS; format: biochemical; conditions: RBM5-177 5 µM, 30 min
T1 construct: purchased R&D Systems
Method: Cells were seeded at 5 × 10^5 cells/mL into 6 well plates (1 mL/well) and were allowed to adhere for 24 h. Medium was replaced with fresh medium containing RBM5-177, RBM5-019 or RBM2-37 (5 µM final concentration). After 30 min, medium was removed; cells were washed with 400 µL PBS and harvested with 400 µL Trypsin-EDTA and 600 µL of medium. NC recombinant enzyme, lysates from A375-AC overexpressing cells, MEF5 or microsomes from HeLa T-Rex ACER1-TET-ON and HeLa T-Rex […] activity buffer. Cell pellets were resuspended with 100 µL of H2O and mixed with 750 µL of methanol: chloroform, 2:1. Samples were heated at 48°C overnight and next day, 75 µL of 1 M KOH in methanol were added, followed by 2 h incubation at 37°C. Afterwards, the saponification was neutralised with 75 µL of 1 M acetic acid and solvent was removed using a Speed Vac Savant SPD131 DDA (Thermo Scientific). Sphingolipid extracts, fortified with internal standards (N-dodecanoylsphingosine, N-dodecanoylglucosylsphingosine, N-dodecanoylsphingosylphosphorylcoline and C17-sphinganine 0.2 nmol each) were solubilised in 150 µL of methanol. Samples were then centrifuged at 9,300 g for 3 min and 130 µL of the supernatant were injected to a Waters Aquity UPLC system connected to a Waters LCT Premier Orthogonal Accelerated Time of Flight Mass Spectrometer (Waters,Milford, MA, USA) operated in positive electrospray ionisation mode. […]

[2] = target: T2, alkaline ceramidases 1 (ACER1) (Homo sapiens, UniProt Q8TDN7); assay: Hydrolysis of RBM5-177 by microsomes of ACER1 overexpressing cells, UPLC-HRMS; format: biochemical; conditions: microsomes from ACER1 overexpressing cells, RBM5-177 5 µM, 30 min
T2 construct: expressed in transfected cells; host or cells: HeLa T-Rex ACER1-TET-ON, tetracycline-induced; microsomes
T2 sequence (Q8TDN7 1-264): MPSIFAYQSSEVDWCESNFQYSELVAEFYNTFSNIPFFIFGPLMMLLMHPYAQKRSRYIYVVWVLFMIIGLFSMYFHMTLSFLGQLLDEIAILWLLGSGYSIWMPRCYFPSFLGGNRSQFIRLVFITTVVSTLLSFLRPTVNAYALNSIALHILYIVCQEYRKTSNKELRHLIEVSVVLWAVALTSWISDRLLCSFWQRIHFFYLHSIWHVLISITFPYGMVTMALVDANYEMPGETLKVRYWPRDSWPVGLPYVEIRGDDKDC
Method: (§1) Cell lysates obtained from HeLa T-Rex ACER1-TET-ON, HeLa T-Rex ACER2-TET-ON and MEF5 overexpressing ACER3 cells were transferred to ultracentrifuge tubes and were spun at 100000 g for 1 h at 4°C. Pellets were resuspended in a 0.25 M saccharose solution and protein concentration was determined as specified below.
(§2) Cells were seeded at 5 × 10^5 cells/mL into 6 well plates (1 mL/well) and were allowed to adhere for 24 h. Medium was replaced with fresh medium containing RBM5-177, RBM5-019 or RBM2-37 (5 µM final concentration). After 30 min, medium was removed; cells were washed with 400 µL PBS and harvested with 400 µL Trypsin-EDTA and 600 µL of medium. NC recombinant enzyme, lysates from A375-AC overexpressing cells, MEF5 or microsomes from HeLa T-Rex ACER1-TET-ON and HeLa T-Rex […] activity buffer. Cell pellets were resuspended with 100 µL of H2O and mixed with 750 µL of methanol: chloroform, 2:1. Samples were heated at 48°C overnight and next day, 75 µL of 1 M KOH in methanol were added, followed by 2 h incubation at 37°C. Afterwards, the saponification was neutralised with 75 µL of 1 M acetic acid and solvent was removed using a Speed Vac Savant SPD131 DDA (Thermo Scientific). […]

ACER3 = target: T3, ACER3 (Mus musculus, UniProt Q9D099); assay: Hydrolysis of RBM5-177 by microsomes of ACER3 overexpressing cells, UPLC-HRMS; format: biochemical; conditions: microsomes from ACER3 overexpressing cells, RBM5-177 5 µM, 30 min
T3 construct: endogenous in cells; host or cells: MEF5 cells (NC-deficient)
T3 sequence (Q9D099 1-267): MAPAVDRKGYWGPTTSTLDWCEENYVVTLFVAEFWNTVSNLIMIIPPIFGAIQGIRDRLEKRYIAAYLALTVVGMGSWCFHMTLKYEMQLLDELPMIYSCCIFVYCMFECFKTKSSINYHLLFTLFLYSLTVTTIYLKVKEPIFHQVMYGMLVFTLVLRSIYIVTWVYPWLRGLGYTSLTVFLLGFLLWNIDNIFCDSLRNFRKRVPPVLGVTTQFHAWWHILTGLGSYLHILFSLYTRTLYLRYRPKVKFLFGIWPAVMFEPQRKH
Method: as §1, §2

mitochondria = assay: Confocal co-localization of probe/CO-1 staining with Mitotracker; format: cell-based; conditions: A375/+Dox, RBM5-177 probe, FB1 100 µM 24 h or SOCLAC 5 µM 1 h, independent treatments
Method: Cells were seeded at 1 × 10^5 cells/mL on glass-bottom plates and allowed to adhere for 24 h. For golgi staining, cells were incubated with 40 µL/well of CellLight Golgi-RFP BacMam 2.0 for 24 h. Medium was replaced with fresh medium containing RBM5-177, RBM5-019, RBM2-37 or RBM2-31 (5 µM final concentration) and cells were incubated for 20 min at 37 °C. After this time, the medium was replaced with fresh medium containing CO-1 (1 µM final concentration), and cells were incubated for 10 min. Then cells were washed 3 times with DMEM for 5 min at 37 °C, 75 nM LysoTracker Red DND-99 or 75 nM Mitotracker in phenol red-free DMEM was added to stain lysosomes or mitochondria, and cells were kept in the incubator for microscope analysis. Staining was viewed with a Zeiss LSM 880 confocal microscope or Leica TCS SP8-Hyvolution. Image analysis was performed using Fiji software.^[7] To measure the Manders's and Pearson's coefficients a threshold including organelles and discarding the background was set. Co-localization coefficients were measured using the JaCoP plugin (S. Bolte et al. J. Microsc. 2006, 224, 213-232) on the different stacks of images (at least n=4) with each stack containing 3-10 cells.

T1 sequence (Q9NR71 whole entry): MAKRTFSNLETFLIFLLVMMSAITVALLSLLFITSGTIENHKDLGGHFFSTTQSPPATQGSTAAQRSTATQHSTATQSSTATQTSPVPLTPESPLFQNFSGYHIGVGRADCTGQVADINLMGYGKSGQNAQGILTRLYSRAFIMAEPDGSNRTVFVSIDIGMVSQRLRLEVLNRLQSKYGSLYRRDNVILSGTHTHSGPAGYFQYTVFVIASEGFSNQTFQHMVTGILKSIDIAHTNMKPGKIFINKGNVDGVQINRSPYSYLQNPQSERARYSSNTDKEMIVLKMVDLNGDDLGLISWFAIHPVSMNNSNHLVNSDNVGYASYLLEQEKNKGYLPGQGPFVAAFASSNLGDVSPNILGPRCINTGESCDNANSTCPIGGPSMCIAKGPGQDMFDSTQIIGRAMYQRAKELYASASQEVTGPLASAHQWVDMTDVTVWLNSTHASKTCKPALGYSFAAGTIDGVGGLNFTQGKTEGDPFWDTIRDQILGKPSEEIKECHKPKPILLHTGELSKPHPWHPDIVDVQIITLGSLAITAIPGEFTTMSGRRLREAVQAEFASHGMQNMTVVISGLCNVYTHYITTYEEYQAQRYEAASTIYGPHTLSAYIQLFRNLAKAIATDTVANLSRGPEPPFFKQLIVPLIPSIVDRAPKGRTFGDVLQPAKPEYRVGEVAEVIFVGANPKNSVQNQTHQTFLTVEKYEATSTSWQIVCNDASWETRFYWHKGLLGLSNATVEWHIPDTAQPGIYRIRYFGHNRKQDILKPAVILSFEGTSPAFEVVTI

| Compound | RBM5-19 formation (hydrolysis as substrate) [1] | RBM5-19 formation (hydrolysis as substrate) [2] | RBM5-19 formation (hydrolysis as substrate) (ACER3) | effect on mitochondria labelling (mitochondria) |
| --- | --- | --- | --- | --- |
| CCCCCCCC(=O)N[C@@H](C)[C@H](O)CCCCCCCCCCCCN=[N+]=[N-] [RBM5-177, N-((2S,3R)-15-azido-3-hydroxypentadecan-2-yl)octanamide] | transformed into the free amine only by AC | transformed into the free amine only by AC | transformed into the free amine only by AC |  |
| CCCCCCCCCCCCC/C=C/[C@@H](O)[C@H](CO)NC(=O)CCl [SOCLAC] |  |  |  | mitochondria labelling was precluded |
